In patent publication US11590116B2 (THERAVANCE BIOPHARMA R&D IP, LLC, priority 2019, dated 2023):

Columns and labels:
[1] = target: T1, recombinant human ALK5 (TGF-βR1) protein (Homo sapiens, UniProt P36897); experiment: Biochemical ALK5 (TGF-βR1) assay to measure pKi (LANCE Ultra ULight kinase assay); details: apparent pKi from pIC50 by Cheng-Prusoff, read-out: ALK5 pKi (converted)
T1 construct: purchased Life Technologies PR9075A
T1 sequence (P36897 34-503): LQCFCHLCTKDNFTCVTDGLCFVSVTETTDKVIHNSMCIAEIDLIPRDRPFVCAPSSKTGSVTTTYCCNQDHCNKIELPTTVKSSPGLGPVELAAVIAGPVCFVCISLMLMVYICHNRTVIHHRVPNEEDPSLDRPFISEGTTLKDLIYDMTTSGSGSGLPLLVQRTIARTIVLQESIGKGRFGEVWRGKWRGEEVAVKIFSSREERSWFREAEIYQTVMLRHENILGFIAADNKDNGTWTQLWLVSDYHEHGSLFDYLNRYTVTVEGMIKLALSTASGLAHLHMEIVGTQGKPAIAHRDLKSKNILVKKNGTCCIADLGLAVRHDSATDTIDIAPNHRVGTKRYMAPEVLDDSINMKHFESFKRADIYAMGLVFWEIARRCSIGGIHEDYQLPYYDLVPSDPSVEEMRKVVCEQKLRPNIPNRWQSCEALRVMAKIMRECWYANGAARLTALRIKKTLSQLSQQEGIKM
Procedure, shortened: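 After a 60 min room-temperature preincubation of ALK5 with compound, phosphorylation proceeds 60 min at 37 °C on ATP addition (125 μM as 5× stock). Detection: Eu-labelled phospho-Thr1342 Topo IIα antibody in EDTA buffer, pH 7.0; emission 665 nm.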

[2] = test system: TGF-β-stimulated SMAD3 phosphorylation in BEAS-2B cells; experiment: Cellular ALK5 potency assay, inhibition of TGF-β stimulated pSMAD3 formation in BEAS-2B cells; type: cell-based; details: Homo sapiens; inhibition of TGF-β stimulated pSMAD3 formation, BEAS-2B cells; read-out: BEAS2B pIC50 (converted)
Procedure, shortened: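 Cells seeded overnight; rinse with supplemented HBSS; compound 1 h at 37 °C; TGF-β 10 ng/mL final, 30 min; lyse; AlphaLISA acceptor and detector beads 2 h apart, read next day. Potency expressed as pIC50.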

| Structure (SMILES) | Ki [1] [nM] | IC50 [2] [nM] |
| --- | --- | --- |
| Cc1cccc(-c2[nH]cnc2-c2ccc3ncc(N4CCN[C@@H](C(=O)O)C4)cc3c2)n1 [Compound 168, (2R)-4-[6-[5-(6-methyl-2-pyridyl)-1H-imidazol-4-yl]-3-quinolyl]piperazine-2-carboxylic acid] | 0.0398 to 0.316 | 1580 to 10000 |
| Cc1cccc(-c2[nH]cnc2-c2ccc3ncc(C(=O)OC[C@H]4CC[C@@H](N)CC4)cc3c2)n1 [Compound 770, (4-aminocyclohexyl)methyl 6-[5-(6-methyl-2-pyridyl)-1H-imidazol-4-yl]quinoline-3-carboxylate] | 0.0398 to 0.316 | 25.1 to 158 |
| Cc1cccc(-c2[nH]cnc2-c2ccc3ncc(NCCNC4CCCNC4)cc3c2)n1 (racemic) [Compound 217, N-[6-[5-(6-methyl-2-pyridyl)-1H-imidazol-4-yl]-3-quinolyl]-N′-[rac-(3R)-3-piperidyl]ethane-1,2-diamine] | 0.0398 to 0.316 | 200 to 1260 |
| Cc1cccc(-c2nnn(Cc3ccccc3)c2-c2ccc3ncc(N4CCCNCC4)cc3c2)n1 [Compound 411, 6-[3-benzyl-5-(6-methyl-2-pyridyl)triazol-4-yl]-3-(1,4-diazepan-1-yl)quinoline] | 0.0398 to 0.316 | 25.1 to 158 |
| Cc1cccc(-c2[nH]ncc2-c2ccc3ncc(C(=O)O[C@H]4CCNC4)cc3c2)n1 [Compound 1218, [(3S)-pyrrolidin-3-yl]6-[5-(6-methyl-2-pyridyl)-1H-pyrazol-4-yl]quinoline-3-carboxylate] | 0.0398 to 0.316 | 25.1 to 158 |
| Cc1cccc(-c2n[nH]cc2-c2ccc3ncc(NC(=O)CCCN4CCN(C(C)C)CC4)cc3n2)n1 [Compound 99, 4-(4-isopropylpiperazin-1-yl)-N-[6-[3-(6-methyl-2-pyridyl)-1H-pyrazol-4-yl]-1,5-naphthyridin-3-yl]butanamide] | 0.0398 to 0.316 | 25.1 to 158 |
| Cc1cccc(-c2[nH]cnc2-c2ccc3ncc(-c4cc(C(=O)OC5CCNCC5)ccn4)cc3c2)n1 [Compound 1115, 4-piperidyl 2-[6-[5-(6-methyl-2-pyridyl)-1H-imidazol-4-yl]-3-quinolyl]pyridine-4-carboxylate] | 0.0398 to 0.316 | 25.1 to 158 |
| Cc1nc(-c2n[nH]cc2-c2ccc3ncc(-c4cccn(C)c4=O)cc3n2)ccc1F [Compound 674, 3-[6-[3-(5-fluoro-6-methyl-2-pyridyl)-1H-pyrazol-4-yl]-1,5-naphthyridin-3-yl]-1-methyl-pyridin-2-one] | 0.0398 to 0.316 | < 20 |
| Cc1cccc(-c2n[nH]cc2-c2ccc3ncc(-c4cnc5n4CCN5)cc3n2)n1 [Compound 681, 7-(6,7-dihydro-5H-imidazo[1,2-a]imidazol-3-yl)-2-[3-(6-methyl-2-pyridyl)-1H-pyrazol-4-yl]-1,5-naphthyridine] | < 0.0316 | 25.1 to 158 |
| Cc1cccc(-c2n[nH]cc2-c2ccc3ncc(N4CCC(C)(O)CC4)cc3n2)n1 [Compound 617, 4-methyl-1-[6-[3-(6-methyl-2-pyridyl)-1H-pyrazol-4-yl]-1,5-naphthyridin-3-yl]piperidin-4-ol] | < 0.0316 | < 20 |
| Cc1cccc(-c2[nH]cnc2-c2ccc3ncc(-c4cc(C(=O)OCC5CNC5)ccn4)cc3c2)n1 [Compound 1157, azetidin-3-ylmethyl 2-[6-[5-(6-methyl-2-pyridyl)-1H-imidazol-4-yl]-3-quinolyl]pyridine-4-carboxylate] | 0.0398 to 0.316 | 25.1 to 158 |
| Cc1cccc(-c2n[nH]cc2-c2ccc3ncc(-c4ccc(N)nc4)cc3n2)n1 [Compound 562, 5-[6-[3-(6-methyl-2-pyridyl)-1H-pyrazol-4-yl]-1,5-naphthyridin-3-yl]pyridin-2-amine] | < 0.0316 | < 20 |
| Cc1cccc(-c2[nH]cnc2-c2ccc3ncc(C4=CCN(C(=O)C5CNC5)CC4)cc3c2)n1 [Compound 1036, azetidin-3-yl-[4-[6-[5-(6-methyl-2-pyridyl)-1H-imidazol-4-yl]-3-quinolyl]-3,6-dihydro-2H-pyridin-1-yl]methanone] | 0.0398 to 0.316 | 200 to 1260 |
| Cc1cccc(-c2n[nH]cc2-c2ccc3ncc(N4C[C@@H]5CCN[C@@H]5C4)cc3n2)n1 (racemic) [Compound 598, 2-[3-(6-methyl-2-pyridyl)-1H-pyrazol-4-yl]-7-[rac-(3aS,6aS)-2,3,3a,4,6,6a-hexahydro-1H-pyrrolo[2,3-c]pyrrol-5-yl]-1,5-naphthyridine] | < 0.0316 | 25.1 to 158 |
| Cc1cccc(-c2n[nH]cc2-c2ccc3ncc(CN4CC(N5CCOCC5)C4)cc3n2)n1 [Compound 495, 4-[1-[[6-[3-(6-methyl-2-pyridyl)-1H-pyrazol-4-yl]-1,5-naphthyridin-3-yl]methyl]azetidin-3-yl]morpholine] | 3.98 to 31.6 | 200 to 1260 |
| Cc1cccc(-c2nc[nH]c2-c2ccc3ncc(-c4cnn([C@H]5CCCC[C@@H]5N)c4)cc3c2)n1 [Compound 656, (1S,2S)-2-[4-[6-[4-(6-methyl-2-pyridyl)-1H-imidazol-5-yl]-3-quinolyl]pyrazol-1-yl]cyclohexanamine] | < 0.0316 | < 20 |
| CNC(=O)c1ccnc2ccc(-c3c[nH]nc3-c3cccc(C)n3)nc12 [Compound 818, N-methyl-6-[5-(6-methyl-2-pyridyl)-1H-pyrazol-4-yl]-1,5-naphthyridine-4-carboxamide] | 0.0398 to 0.316 | 25.1 to 158 |
| Cc1cccc(-c2nnn(C)c2-c2ccc3ncc(N4CCNCC4)cc3c2)n1 [Compound 86, 6-[3-methyl-5-(6-methyl-2-pyridyl)triazol-4-yl]-3-piperazin-1-yl-quinoline] | 0.398 to 3.16 | 25.1 to 158 |
| Cc1cccc(-c2n[nH]cc2-c2ccc3ncc(-c4cnn5c4NCCC5)cc3n2)n1 [Compound 525, 2-[3-(6-methyl-2-pyridyl)-1H-pyrazol-4-yl]-7-(4,5,6,7-tetrahydropyrazolo[1,5-a]pyrimidin-3-yl)-1,5-naphthyridine] | < 0.0316 | < 20 |

Second part, led by results:

| Ki [1] [nM] | Structure (SMILES) | IC50 [2] [nM] |
| --- | --- | --- |
| < 0.0316 | Cc1cccc(-c2n[nH]cc2-c2ccc3ncc(-c4cccc(C(=O)O)c4)cc3n2)n1 [Compound 172, 3-[6-[3-(6-methyl-2-pyridyl)-1H-pyrazol-4-yl]-1,5-naphthyridin-3-yl]benzoic acid] | 1580 to 10000 |
| 0.0398 to 0.316 | Cc1nc(-c2nc3ccccn3c2-c2ccc3ncc(N4CCC(N5CCN(C)CC5)CC4)cc3n2)ccc1F [Compound 47, 2-[2-(5-fluoro-6-methyl-2-pyridyl)imidazo[1,2-a]pyridin-3-yl]-7-[4-(4-methylpiperazin-1-yl)-1-piperidyl]-1,5-naphthyridine] | 200 to 1260 |
| 0.0398 to 0.316 | Cc1cccc(-c2nc3ccccn3c2-c2ccc3ncc(N4CCC(N(C)C)CC4)cc3n2)n1 [Compound 683, N,N-dimethyl-1-[6-[2-(6-methyl-2-pyridyl)imidazo[1,2-a]pyridin-3-yl]-1,5-naphthyridin-3-yl]piperidin-4-amine] | 25.1 to 158 |
| 0.0398 to 0.316 | Cc1cccc(-c2n[nH]cc2-c2ccc3ncc(N4CCC[C@H]4CO)cc3n2)n1 [Compound 52, [(2S)-1-[6-[3-(6-methyl-2-pyridyl)-1H-pyrazol-4-yl]-1,5-naphthyridin-3-yl]pyrrolidin-2-yl]methanol] | 25.1 to 158 |
| 0.0398 to 0.316 | Cc1cccc(-c2[nH]cnc2-c2ccc3ncc(NC4CNC4)cc3c2)n1 [Compound 50, N-(azetidin-3-yl)-6-[5-(6-methyl-2-pyridyl)-1H-imidazol-4-yl]quinolin-3-amine] | 25.1 to 158 |
| 0.0398 to 0.316 | Cc1cccc(-c2nc3ccccn3c2-c2ccc3ncc(-c4cnn5c4CNCC5)cc3n2)n1 [Compound 587, 2-(2-(6-methylpyridin-2-yl)imidazo[1,2-a]pyridin-3-yl)-7-(4,5,6,7-tetrahydropyrazolo[1,5-a]pyrazin-3-yl)-1,5-naphthyridine] | 25.1 to 158 |
| 0.0398 to 0.316 | COC(=O)C1CN(CCNc2cnc3ccc(-c4c[nH]nc4-c4cccc(C)n4)nc3c2)CCN1 (centres unmarked) [Compound 137, methyl 4-[2-[[6-[3-(6-methyl-2-pyridyl)-1H-pyrazol-4-yl]-1,5-naphthyridin-3-yl]amino]ethyl]piperazine-2-carboxylate] | 1580 to 10000 |
| 0.0398 to 0.316 | Cc1cccc(-c2[nH]cnc2-c2ccc3ncc(C4=CCC(C(=O)OCC5CNC5)CC4)cc3c2)n1 (centres unmarked) [Compound 36, azetidin-3-ylmethyl 4-[6-[5-(6-methyl-2-pyridyl)-1H-imidazol-4-yl]-3-quinolyl]cyclohex-3-ene-1-carboxylate] | 25.1 to 158 |
| 0.0398 to 0.316 | CCOC(=O)c1ccnc2ccc(-c3c[nH]nc3-c3cccc(C)n3)nc12 [Compound 800, ethyl 6-[3-(6-methyl-2-pyridyl)-1H-pyrazol-4-yl]-1,5-naphthyridine-4-carboxylate] | 25.1 to 158 |
